# Experimental data: patent EP3641564B1, “TASTE MODULATING FLAVORING SUBSTANCES” (Symrise AG, priority 2017, dated 2018)
# Tests used:
# [1] = Sensory panel rating of bitterness reduction of a caffeine solution; format: in vivo; settings: for Bitterness rating with test substance (0-100 scale): expert panel mean, rating 0 [nicht bitter] to 100 [extrem bitter]; for % Reduktion des Bitter-Eindrucks (Signifikanz): 500 ppm Coffein, calculated from panel means versus solution without test substance
# From the text: (§1) Um die Reduzierung (d.h. die Maskierung oder Verminderung) des Bitter-Eindrucks in einer Probe zu quantifizieren, wurde die Bitterkeit einer Lösung enthaltend 500 ppm Coffein oder 300 ppm Theobromin oder 100 ppm Naringin von einer Expertengruppe jeweils mit einer Probe verglichen, die 500 ppm Coffein oder 300 ppm Theobromin oder 100 ppm Naringin und zusätzlich die jeweils angegebene Menge einer (hinsichtlich der Fähigkeit zur Bitter-Reduzierung) zu beurteilenden Substanz enthielt (Einstufung: 0 [nicht bitter] bis 100 [extrem bitter]). Für die Auswertung, d.h. die Berechnung der Reduktion (in %) des Bittereindrucks wurden jeweils die Durchschnittswerte der Einschätzungen der Expertengruppe verwendet. Die Ergebnisse sind in Tabelle 1 zusammengefasst: Tabelle 1: Bitterreduzierung einer Bitterstofflösung
# [2] = Sensory panel rating of bitterness reduction of a theobromine solution; format: in vivo
# From the text: as §1
# [3] = 10 ppm test substance in 500 ppm Coffein solution
Compound,"Bitterness rating with test substance (0-100 scale) [1, 3]",% Reduktion des Bitter-Eindrucks (Signifikanz) ([1]; 10 ppm test substance),Bitterness rating with test substance (0-100 scale) ([1]; 25 ppm test substance in 500 ppm Coffein solution),% Reduktion des Bitter-Eindrucks (Signifikanz) ([1]; 25 ppm test substance),"Bitter-Eindruck (0-100) mit Testsubstanz ([2]; 25 ppm test substance in 300 ppm Theobromin solution, expert panel mean, rating 0 [nicht bitter] to 100 [extrem bitter])","% Reduktion des Bitter-Eindrucks (Signifikanz) ([2]; 25 ppm test substance, 300 ppm Theobromin, calculated from panel means versus solution without test substance)"
"COc1ccc(C(O)Cc2cccc(O)c2C(=O)O)cc1O (single isomer, unassigned) [Substanz (3), 2-Hydroxy-6-[2-hydroxy-2-(3-hydroxy-4-methoxyphenyl)ethyl]benzoesäure]",41.25 + 21.83,14.0 % (p = 0.29),38.85 + 19.19,26.5 % (p < 0.05),39.76 ± 20.91,16.5 % (p = 0.21)
"COc1ccc(/C=C/c2cccc(O)c2C(=O)O)cc1O [Substanz (6), 2-Hydroxy-6-[(E)-2-(3-hydroxy-4-methoxyphenyl)vinyl]benzoesäure]",37.50 ± 18.84,18.3 % (p = 0.15),,,,
